Measurements: PubChem BioAssay (NCI)
Where “and” joins values, the source holds several entries; their conditions need not be identical. Equal entries are not always repeated.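 Tested at 5 concentrations; 48 h exposure; 96-well plates; endpoints linearly interpolated, else capped at highest concentration. The concentration for 50% growth inhibition is given as GI50. TGI: total growth inhibition.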

What was measured:
Assay in all cases: inhibition of tumour cell growth, NCI panel, 48 h
[1] = test system: NCI/ADR-RES ovarian
[2] = test system: SF-268 CNS
[3] = test system: SF-295 CNS
[4] = test system: HCT-15 colon
[5] = test system: COLO 205 colon
[6] = test system: EKVX NSCLC
[7] = test system: SK-OV-3 ovarian
[8] = test system: OVCAR-8 ovarian
[9] = test system: SN12C renal
[10] = test system: SF-539 CNS

Row | Structure (SMILES) | TGI [1] | TGI [2] | TGI [3] | TGI [4] | TGI [5] | TGI [6] | TGI [7] | TGI [8] | TGI [9] | TGI [10] | GI50 [1] | GI50 [2] | GI50 [10] | GI50 [3] | GI50 [4] | GI50 [5] | GI50 [6] | GI50 [7] | GI50 [9] | GI50 [8]
1 | Brc1ccc(-c2[nH]c3ccccc3c2/C=N\Nc2ccc(-c3nc4ccccc4[nH]3)cc2)cc1 | > 100 µM | 6.28 µM | > 100 µM | > 37 µM | 0.0834 µM | > 52.2 µM | > 100 µM | > 58.5 µM | > 100 µM | – | – | – | – | – | – | – | – | – | – | –
2 | c1ccc(CSC(SCc2ccccc2)c2cccc3ccccc23)cc1 | > 10 µM | > 10 µM | > 10 µM | > 10 µM | > 10 µM | > 10 µM | > 10 µM | > 10 µM | > 10 µM | > 10 µM | – | – | – | – | – | – | – | – | – | –
3 | COc1cc(/C=N/NC(=O)c2c(Cl)c(Cl)c(Cl)c(Cl)c2-c2nc3ccc(C(=O)c4ccccc4)cc3[nH]2)ccc1O | 77 µM | > 100 µM | > 100 µM | > 100 µM | 58.1 µM | > 100 µM | > 100 µM | > 100 µM | > 100 µM | > 100 µM | – | – | – | – | – | – | – | – | – | –
4 | CCOC(=O)C1=C(C(=O)OCC)SC2(S1)C(C(=O)OCC)=C(C(=O)OCC)Sc1c2ssc1=O | 7.64 µM | 4.19 µM | 28.8 µM | 2.72 µM | 5.15 µM | 5.78 µM | 10.9 µM | 3.31 µM | 2.48 µM | 2.4 µM | – | – | – | – | – | – | – | – | – | –
5 | Cc1csc2nc(-c3cccc([N+](=O)[O-])c3)c(/C=N/N=C(N)N)n12 | 36.3 µM | 3.29 µM | 3.12 µM | 3.71 µM | 3 µM | 2.96 µM | 3.33 µM | 3.2 µM | 3.11 µM | 4.71 µM | – | – | – | – | – | – | – | – | – | –
6 | CCCCCCCCCCCCc1ccc(S(=O)(=O)O)cc1.[Cu+2] | > 100 µM | > 100 µM | > 100 µM | > 100 µM | > 100 µM | > 100 µM | 22.8 µM | > 100 µM | > 100 µM | > 100 µM | – | – | – | – | – | – | – | – | – | –
7 | O=C(CSCC(=O)N/N=C\c1ccc(F)cc1F)N/N=C\c1ccc(F)cc1F | > 100 µM | > 100 µM | > 100 µM | > 100 µM | > 100 µM | > 100 µM | > 100 µM | > 100 µM | > 100 µM | > 100 µM | – | – | – | – | – | – | – | – | – | –
8 | COC(=O)c1c(O)ccc2c1c1c(n2CCc2ccc(OC)c(OC)c2)C(=O)c2ccccc2C1=O | 31.7 µM | 41 µM | 38 µM | 29.3 µM | 11.1 µM | 40.8 µM | 38.6 µM | 32.6 µM | 50.9 µM | 28.1 µM | – | – | – | – | – | – | – | – | – | –
9 | COc1ccccc1C#C/C=C\C#Cc1ccccc1C#N | > 100 µM | > 100 µM | 47.1 µM | > 100 µM | 37.1 µM | 58.7 µM | > 100 µM | 34.4 µM | > 100 µM | 82.7 µM | – | – | – | – | – | – | – | – | – | –
10 | Cc1ncc(C(=O)Nc2ccc(CN3CCN(C)CC3)c(C(F)(F)F)c2)cc1C#Cc1cnc(N)c2ccc(C#N)cc12 | 5.05 µM | > 100 µM | 33.1 µM | 1.5 µM | > 100 µM | 29.6 µM | > 100 µM | – | 5.01 µM | 1.45 µM | 1.81 µM | 0.0399 µM | 0.0796 µM | 0.0545 µM | 0.0485 µM | 0.0146 µM | 0.0827 µM | 0.02 µM | < 0.0124 µM | –
11 | N#CC1(CCCI)CCCC1 | – | 41.3 µM | 94.7 µM | > 100 µM | > 100 µM | > 100 µM | > 100 µM | > 100 µM | 26.3 µM | 45.1 µM | – | – | – | – | – | – | – | – | – | –
12 | Cc1cc(C)c2c(=O)n(CC(O)CN(Cc3ccccc3)CC(O)Cn3sc4nc(C)cc(C)c4c3=O)sc2n1 (stereo not drawn) | 67.2 µM | 30.9 µM | 61.9 µM | 34.4 µM | 21.3 µM | 44.5 µM | 73.6 µM | 34.5 µM | 32.7 µM | 32 µM | – | – | – | – | – | – | – | – | – | –
13 | Cc1[nH]c(C(=O)Nc2ccc(C(=O)NCCN)cc2OC(C)C)c(Cl)c1Cl | 22.6 µM | – | 3.23 µM | – | – | 3.17 µM | – | 5.43 µM | 3.41 µM | 3.14 µM | 4.32 µM | – | 1.68 µM | 1.76 µM | – | – | 1.62 µM | – | 1.82 µM | 2.23 µM
14 | CC(=O)OC(C(=O)O)C(OC(C)=O)C(OC(C)=O)C(OC(C)=O)C(=O)O (stereo not drawn) | > 100 µM | > 100 µM | > 100 µM | > 100 µM | > 100 µM | > 100 µM | > 100 µM | > 100 µM | > 100 µM | > 100 µM | – | – | – | – | – | – | – | – | – | –
15 | O=S(=O)(c1ccccc1)C1CC(c2nc3ccccc3[nH]2)=NO1 (stereo not drawn) | > 100 µM | > 100 µM | > 100 µM | > 100 µM | > 100 µM | > 100 µM | > 100 µM | > 100 µM | > 100 µM | > 100 µM | – | – | – | – | – | – | – | – | – | –
16 | C[C@]12CC[C@H]3[C@@H](CC=C4C[C@@H](O)CC[C@@]43C)[C@@H]1C/C(=C\c1ccncc1)[C@@H]2O | 67.7 µM | 54.4 µM | 35.5 µM | 58.9 µM | 24.9 µM | 49.1 µM | 79.6 µM | 39.8 µM | 34.8 µM | 45.9 µM | – | – | – | – | – | – | – | – | – | –
17 | N#Cc1c(-c2ccc([N+](=O)[O-])cc2)c2c([nH]c1=O)-c1ccccc1CCC2 | > 100 µM | > 100 µM | > 100 µM | > 100 µM | > 100 µM | > 100 µM | > 100 µM | > 100 µM | > 100 µM | > 100 µM | – | – | – | – | – | – | – | – | – | –
18 | c1ccc(/C(=N\Nc2nc3ccccc3[nH]2)c2ccccn2)cc1 | 0.842 µM | > 45.9 µM | 9.26 µM | 5.83 µM | 3.31 µM | 2.96 µM | 2.02 µM | 1.05 µM | > 21.1 µM | 1.64 µM | – | – | – | – | – | – | – | – | – | –
19 | O=C1Nc2cccc(Cl)c2/C1=C\c1cccnc1 | 15.9 µM | 25.6 µM | 34.6 µM | > 100 µM | 15.9 µM | 93.1 µM | 15.3 µM | 20.1 µM | 20.5 µM | 39.7 µM | – | – | – | – | – | – | – | – | – | –
20 | O=C1OC(c2ccc(O)cc2)(c2ccc(O)cc2)c2ccc(Cl)c3cccc1c23 (tested in a mixture with another compound) | 25.7 µM | 52.8 µM | 25.2 µM | 22.8 µM | 9.06 µM | 4.88 µM | > 75 µM | 38.9 µM | 27.7 µM | 20.8 µM | – | – | – | – | – | – | – | – | – | –
21 | O=C(O)c1cc2ccccc2c(N=Nc2ccc(S(=O)(=O)Nc3ccccn3)cc2)c1O | > 100 µM | > 100 µM | > 100 µM | > 100 µM | > 100 µM | > 100 µM | > 100 µM | > 100 µM | > 100 µM | > 100 µM | – | – | – | – | – | – | – | – | – | –
22 | C[n+]1c2ccccc2c(N=[N+]=[N-])c2ccccc21 | > 10 µM | > 10 µM | > 10 µM | > 10 µM | > 10 µM | > 10 µM | > 10 µM | > 10 µM | > 10 µM | > 10 µM | – | – | – | – | – | – | – | – | – | –
23 | CC[C@@]1(O)CC(OC2CC(N3CCOCC3)C(O)C(C)O2)c2c(O)c3c(c(O)c2[C@H]1O)C(=O)c1cccc(O)c1C3=O (stereo partly drawn) | 1.55 µM and 4.61 µM | 3.27 µM and 2.1 µM | 0.526 µM and 0.357 µM | 1.44 µM and 3.18 µM | 0.897 µM and 2.14 µM | 1.02 µM and 1.63 µM | 1.07 µM and 1.67 µM | 1.07 µM and 5.5 µM | 2.17 µM and 9.19 µM | 1.07 µM and 0.71 µM | 0.0133 µM | 0.091 µM | 0.0233 µM | 0.0292 µM | 0.0358 µM | 0.0433 µM | 0.241 µM | 0.0963 µM | 0.0465 µM | 0.0285 µM
24 | C=C(CN(C)C)C(=O)c1ccccc1OC | 65.3 µM | 63.7 µM | > 71.9 µM | 33.3 µM | 11 µM | 48.6 µM | > 66.1 µM | 50 µM | 40 µM | 31.5 µM | – | – | – | – | – | – | – | – | – | –
